Results from article PMC9967645, “OAT3 Participates in Drug–Drug Interaction between Bentysrepinine and Entecavir through Interactions with M8—A Metabolite of Bentysrepinine—In Rats and Humans In Vitro” (Molecules, 2023).
“And” between values parts separate entries of the source, which are not always exact repeats. Equal entries are not always repeated. Where two headings read alike, the source gives them in different places.

Key:
rat kidney slices = experiment: In vitro uptake assay in kidney slices; type: in vitro ADME; conditions: M8 5.0 µM; for inhibition of the uptake of M8 in kidney slices: PCG 0.2 and 0.5 mM, PRO 0.1 mM, PAH 0.2 and 0.5 mM, TEA 0.2 mM, 10 min, ETV 10 µM
Experimental: The renal cortex was cut into 300 µm slices with a ZQP-86 tissue slicer (Shanghai Zhisun Equipment Co., Ltd., Shanghai, China; surface area 0.15 cm^2). […] Next, the kidney slices were prepared as previously described. Two slices per well were placed into 37 °C buffer filled with oxygen for pre-incubation for 3 min and then gently moved into a 24-well cell culture plate containing 1 mL oxygenated buffer at 4 °C or 37 °C. The uptakes of ETV (10 µM), Y101 (2.0 µM), M8 (5.0 µM) and M9 (1.0 µM) were measured at 5, 10, 15 and 30 min after the treatment, respectively. […] Following incubation at the designated time, kidney slices were collected, rinsed with ice-cold buffer three times, and dried on filter paper. After weighing and homogenization (IKA-T 10 homogenizer; IKA, Staufen, Germany), the concentrations of Y101, M8, M9 and ETV of kidney slice homogenates were determined as in the description below.
(§1) Biological samples were prepared as previously described. Aliquots (50 µL) of urine, plasma, kidney homogenates, or cell lysates were individually mixed with 150 µL methanol and 50 µL working solution of internal standard (acetaminophen or bestatin), followed by vortexing for 1 min and centrifuging at 13,800 g for 10 min. […] The resulting supernatant (1 µL) was subjected to LC-MS/MS for the assessment of Y101, M8, M9 and ETV, respectively. […] The concentrations of ETV, Y101, M8 and M9 were determined by an AB QTRAP 5500 LC–MS/MS System (Foster City, CA, USA) as previously described. Chromatographic separation was achieved on an Infinitylab Poroshell 120 EC-C18 (50 mm × 2.1 mm, 2.7 µm, Agilent Technology Inc., CA, USA) at 40 °C. The mobile phase consisted of formic acid-acetonitrile (0.05:100, v/v) and a mixture of 1 mmol-ammonium acetate-acetonitrile-formic acid (95:5:0.05, v/v/v) at a flow rate of 0.3 mL/min. […] Analyst1.5.2 software was used for data processing and analysis.

hOAT3 = target: T1, hOAT3 (Homo sapiens, UniProt Q8TCC7); experiment: In vitro uptake assay in hOAT3-HEK293 cells
T1 sequence (Q8TCC7 1-542): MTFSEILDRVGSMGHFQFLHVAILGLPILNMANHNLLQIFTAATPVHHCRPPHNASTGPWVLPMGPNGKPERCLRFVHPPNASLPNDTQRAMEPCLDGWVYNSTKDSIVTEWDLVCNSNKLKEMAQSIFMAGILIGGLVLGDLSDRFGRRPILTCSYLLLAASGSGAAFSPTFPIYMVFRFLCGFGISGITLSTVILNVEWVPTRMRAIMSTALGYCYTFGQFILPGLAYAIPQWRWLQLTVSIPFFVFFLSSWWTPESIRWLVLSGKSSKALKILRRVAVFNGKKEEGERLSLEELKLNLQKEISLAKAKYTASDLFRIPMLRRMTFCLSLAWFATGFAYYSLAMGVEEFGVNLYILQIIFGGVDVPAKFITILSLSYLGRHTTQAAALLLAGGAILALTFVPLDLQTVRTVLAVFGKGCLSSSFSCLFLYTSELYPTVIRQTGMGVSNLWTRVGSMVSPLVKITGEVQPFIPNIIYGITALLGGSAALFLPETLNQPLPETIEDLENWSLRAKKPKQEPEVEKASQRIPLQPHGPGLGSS
Experimental: The hOAT1-HEK293, hOAT3-HEK293 and mock cells were cultured in Dulbecco modified Eagle medium (DMEM) containing 10% fetal bovine serum (FBS) and 1% penicillin/streptomycin in an atmosphere of 5% CO2 air at 37 °C. The HEK293 cells were plated on 24-well plates at a density of 5 × 10^5 cells/well. […] Uptake assay was initiated by adding 1 mL of the transporter buffer containing Y101, M8, ETV or probe substrate. Following incubation with gentle shaking, the uptake was terminated at designated time by removing the transporter buffer and washing cells three times with 1 mL of ice-cold HBSS. Next, substrates of Y101, M8, ETV, PAH and ES in cell monolayer were released by lysing the cells with 0.3 mL of 0.1% Triton X-100 for 2 h and determined by liquid chromatography–tandem mass spectrometry (LC–MS/MS). In the time-course uptake assay, Y101 (2.0 µM) and M8 (10 µM) in the presence or absence of PRO (100 µM) were measured in hOAT1-HEK293, hOAT3-HEK293 and mock cells. The concentration-dependent uptake of M8 was determined in hOAT3-HEK293 cells, and incubation time (5 min) was optimized. The uptake of M8 (10 µM) with or without ETV was examined in hOAT3-HEK293 cells. The uptake of ETV (10 µM) with or without Y101 or M8 was also measured in hOAT1-HEK293 and hOAT3-HEK293 cells, respectively. Furthermore, PAH and ES at concentrations of 10 µM were used as positive control in hOAT1-HEK293 and hOAT3-HEK293 cells, respectively. Protein concentrations were measured by the bicinchoninic acid procedure (Solarbio, Beijing, China) using bovine serum albumin as the standard.
as §1

[1] = Pharmacokinetic study in rats, intravenous Y101 with or without PRO; type: in vivo, Sprague–Dawley (SD) rats; conditions: for Tmax / half-life / AUC(0-inf) / AUC(0-t) / Cmax: male, Sprague-Dawley, rat, plasma, iv, 25 mg/kg, n = 3
Experimental: The effect of PRO on the pharmacokinetics of Y101 was studied in rats. Male rats surgically prepared with indwelling jugular cannula were randomly divided into two groups (n = 3): (1) Y101 alone (25 mg/kg) as a control and (2) Y101 + PRO (25 mg/kg for Y101 and 100 mg/kg for PRO) as an experimental group. The intravenous dose of Y101 was prepared as previously described. Both Y101 and PRO were injected by caudal vein to rats at volume of 5 mL/kg.
(§2) Following administration, serial blood samples were collected through jugular vein pre-dose (0 h) and post-dose at 0.033, 0.083, 0.25, 0.5, 1, 1.5, 2, 3, 4, 6, 9, 12, 24 and 30 h in heparinized Eppendorf tubes. The resulting samples were centrifuged at 13,800× g at 4 °C for 5 min to obtain plasma. All plasma samples were stored at −70 °C until analysis.
(§3) Biological samples were prepared as previously described.
(§4) Non-compartmental analysis with Phenix WinNonlin (version 8.1; Pharsight, Certara Corp, Princeton, NJ) was used to calculate the main pharmacokinetic parameters of ETV, Y101, M8 and M9 for individual rats. The observed values were reported for maximum concentration (Cmax) and time to reach maximum concentration (Tmax), while the area under the plasma concentration–time curve (AUC) was calculated via the default trapezoidal-up, log-trapezoidal-down approach.

[2] = Pharmacokinetic DDI study in rats, intravenous Y101 and/or ETV; type: in vivo, Sprague–Dawley (SD) rats; conditions: Sprague-Dawley, rat, plasma, n = 4
Experimental: (§5) Additionally, DDI between Y101 and ETV was investigated by monitoring time-course plasma Y101 in rats with surgery as described above. Animals were randomly placed into three groups (n = 4): (1) Y101 alone (25 mg/kg for intravenous treatment and 60 mg/kg for oral administration); (2) ETV (0.06 mg/kg); and (3) Y101 (25 mg/kg for intravenous treatment and 60 mg/kg for oral administration) + ETV (0.06 mg/kg). ETV was dissolved in saline at concentration of 12 µg/mL. Rats received an oral or intravenous dose of Y101 and/or ETV at volume of 5 mL/kg. The doses used in in vivo pharmacokinetic studies were selected in accordance with therapeutic doses of Y101 and ETV commonly used clinically and in previous studies.
as §2, §3, §4

[3] = Pharmacokinetic DDI study in rats, oral Y101 and/or ETV; type: in vivo, Sprague–Dawley (SD) rats; conditions: Sprague-Dawley, rat, plasma, n = 4
Experimental: as §5, §2, §3, §4

[4] = Renal excretion study in rats (cumulative urinary excretion, renal clearance); type: in vivo, Sprague–Dawley (SD) rats; conditions: for CL renal: Sprague-Dawley, rat, urine, iv, read-out: CLR (renal clearance) (converted)
Experimental: To investigate the effects of PRO on the renal excretion of Y101 and its metabolites, rats received an intravenous dose of Y101 (25 mg/kg) or Y101 + PRO (25 mg/kg for Y101 and 100 mg/kg for PRO) via the caudal vein. In order to verify the DDI between Y101 and ETV in renal excretion, rats received an intravenous dose of Y101 (25 mg/kg) and/or ETV (0.06 mg/kg) by caudal vein.
[…] Subsequently, urine samples were stored at −70 °C until analysis. The cumulative urinary excretion and renal clearance (CLR) were calculated as previously described.
as §3

[5] = i.v. Y101 25 mg/kg + PRO 100 mg/kg vs Y101 alone
[6] = i.v. Y101 25 mg/kg + PRO 100 mg/kg
[7] = i.v. Y101 25 mg/kg + ETV 0.06 mg/kg
[8] = oral Y101 60 mg/kg + ETV 0.06 mg/kg

SMILES: CC1(C)S[C@@H]2[C@H](NC(=O)Cc3ccccc3)C(=O)N2[C@H]1C(=O)O [PCG, benzylpenicillin]
- inhibition of the uptake of M8 in kidney slices (rat kidney slices): inhibited significantly

SMILES: C[C@]12CC[C@@H]3c4ccc(OS(=O)(=O)[O-])cc4CC[C@H]3[C@@H]1CCC2=O.[Na+] [ES, Estrone 3-sulfate sodium salt, reference compound]
- substrate of hOAT3 (uptake in hOAT3-HEK293 vs mock-HEK293 cells) (hOAT3; Y101 2.0 µM, M8 10 µM, ES 10 µM): selectively accumulated

SMILES: C[N+](C)([O-])CCOc1ccc(CC(NC(=O)c2ccccc2)C(=O)O)cc1 (stereo not drawn) [M9]
- elevation in AUC value on co-administration of PRO [1, 5]: 56%
- increase in Cmax value on co-administration of PRO [1, 5]: 1.4 fold
- Tmax [1, 6]: 1.33 h
- half-life [1, 6]: 1.32 h
- AUC(0-inf) [1, 6]: 536 ng·h/mL
- AUC(0-t) [1, 6]: 527 ng·h/mL
- Cmax [1, 6]: 219 ng/mL
- AUC(0-inf) ([1]; i.v. Y101 25 mg/kg alone): 343 ng·h/mL
- AUC(0-t) ([1]; i.v. Y101 25 mg/kg alone): 335 ng·h/mL
- Cmax ([1]; i.v. Y101 25 mg/kg alone): 156 ng/mL
- Tmax ([1]; i.v. Y101 25 mg/kg alone): 1.17 h
- half-life ([1]; i.v. Y101 25 mg/kg alone): 1.01 h
- AUC(0-inf) [2, 7]: 471 ng·h/mL
- AUC(0-t) [2, 7]: 464 ng·h/mL
- Cmax [2, 7]: 171 ng/mL
- AUC(0-inf) ([2]; i.v. Y101 25 mg/kg alone): 553 ng·h/mL
- AUC(0-t) ([2]; i.v. Y101 25 mg/kg alone): 547 ng·h/mL
- Cmax ([2]; i.v. Y101 25 mg/kg alone): 134 ng/mL
- Tmax [2, 7]: 1.25 h
- half-life [2, 7]: 1.8 h
- Tmax ([2]; i.v. Y101 25 mg/kg alone): 1.13 h
- half-life ([2]; i.v. Y101 25 mg/kg alone): 1.14 h
- AUC(0-inf) [3, 8]: 657 ng·h/mL
- AUC(0-t) [3, 8]: 645 ng·h/mL
- Cmax [3, 8]: 127 ng/mL
- AUC(0-inf) ([3]; oral Y101 60 mg/kg alone): 645 ng·h/mL
- AUC(0-t) ([3]; oral Y101 60 mg/kg alone): 641 ng·h/mL
- Cmax ([3]; oral Y101 60 mg/kg alone): 144 ng/mL
- Tmax [3, 8]: 2.5 h
- half-life [3, 8]: 1.46 h
- Tmax ([3]; oral Y101 60 mg/kg alone): 3 h
- half-life ([3]; oral Y101 60 mg/kg alone): 1.16 h
- CL renal ([4]; 25 mg/kg, i.v. Y101 25 mg/kg + PRO 100 mg/kg): 2 mL/min/kg
- CL renal ([4]; 25 mg/kg, i.v. Y101 25 mg/kg alone (Table 1, control of PRO study)): 2.08 mL/min/kg
- CL renal ([4]; 25 mg/kg, i.v. Y101 25 mg/kg alone (Table 2, control of ETV study)): 2.47 mL/min/kg
- CL renal [4, 7]: 2.67 mL/min/kg
- cumulative excretion in the urine ([4]; i.v. Y101 25 mg/kg + ETV 0.06 mg/kg, at 30 h post-dose): 1.50 ± 0.232 % of the dose
- cumulative urinary excretion ([4]; i.v. Y101 25 mg/kg + PRO 100 mg/kg, 0 to 48 h): 1.36 ± 0.106%
- cumulative urinary excretion ([4]; i.v. Y101 25 mg/kg alone, at 48 h post-dose): 1.42 ± 0.04 % of the dose and 1.42 % of the dose
- time and temperature dependence of uptake in kidney slices (rat kidney slices; 37 °C vs 4 °C, Y101 2.0 µM, M9 1.0 µM, 5 to 30 min): did not show significant time or temperature dependence

SMILES: CCCN(CCC)S(=O)(=O)c1ccc(C(=O)O)cc1 [PRO, probenecid, reference compound]
- inhibition of the uptake of M8 in kidney slices (rat kidney slices): inhibited significantly
- inhibition of the uptake of ES in hOAT3-HEK293 cells (hOAT3; ES 10 µM, PRO 100 µM, 10 min): inhibited in the presence of PRO
- inhibition of the uptake of M8 in hOAT3-HEK293 cells (hOAT3; M8 10 µM, PRO 100 µM, ETV 10 µM): inhibited by the presence of PRO
